Laboratory results reported in ChEMBL document CHEMBL6120994, “Unravelling the potential of natural chelating agents in the control of Staphylococcus aureus and Pseudomonas aeruginosa biofilms” (Eur J Med Chem, 2025).
The source made the active and inactive calls. No cut-off for these calls is given here.

Assays:
Staphylococcus aureus [1] = experiment: Antibiotic adjuvant activity against preestablished 24 hr-old Staphylococcus aureus CECT 976 assessed as potentiation of tobramycin-induced antibiofilm activity by measuring reduction of metabolic activity of biofilm cells at 10000 ug/ml in presence of 1/4XMIC tobramycin by resazurin staining based fluorescence analysis (reference value: 37%); assay type: functional
Staphylococcus aureus [2] = experiment: Antibacterial activity against Staphylococcus aureus CECT 976 assessed as inhibition of bacterial growth by measuring inhibition zone diameter at 1000 ug/ml incubated for 24 hrs in presence of methicillin by disc diffusion method (reference value: 19.5 +/- 1.29 mm); assay type: functional; conditions: read-out: DIZ
Staphylococcus aureus [3] = experiment: Inhibition of virulence production in Staphylococcus aureus CECT 976 biofilms assessed as diameter of gelatinases halo at 1/2XMTC measured after 48 hrs in presence of 1/2XMIC tobramycin (reference value: 10 to 10.8 mm); assay type: functional
Staphylococcus aureus [4] = experiment: Inhibition of virulence production in pre-established 24 hr-old Staphylococcus aureus CECT 976 biofilms assessed as diameter of protease halo at 10XMTC measured after 72 hrs in presence of 1/4XMIC tobramycin (reference value: 12.5 to 12.8 mm); assay type: functional
Staphylococcus aureus [5] = experiment: Antibacterial activity against Staphylococcus aureus CECT 976 assessed as inhibition of bacterial growth by measuring inhibition zone diameter at 1000 ug/ml incubated for 24 hrs in presence of fusidic acid by disc diffusion method (reference value: 27.75 +/- 0.5 mm); assay type: functional; conditions: read-out: DIZ
Staphylococcus aureus [6] = experiment: Inhibition of virulence production in Staphylococcus aureus CECT 976 biofilms assessed as diameter of siderophores halo at 1/2XMTC measured after 48 hrs (reference value: 12 mm); assay type: functional
Pseudomonas aeruginosa [7] = experiment: Antibiotic adjuvant activity against Pseudomonas aeruginosa ATCC 10145 assessed as potentiation of ciprofloxacin-induced antibiofilm activity by measuring reduction in biofilm cells culturability at 500 ug/ml measured after 24 hrs in presence of ciprofloxacin by visual counting method; assay type: functional, organism-based; conditions: dose 500.0 µg/ml
[8] = Metal chelating activity at iron(III) in chrome azurol sulphonate solution assessed as absorption spectra peak around […] incubated for 30 mins by spectrophotometric analysis
Cell membrane = experiment: Disruption of membrane integrity in pre-established 24 hr-old Staphylococcus aureus CECT 976 assessed as PI uptake at 10000 ug/ml measured after 24 hrs in presence of 1/4XMIC to MIC tobramycin by PI staining based flow cytometry; assay type: subcellular; conditions: dose 10000.0 µg/ml
Staphylococcus aureus [9] = experiment: Inhibition of virulence production in Staphylococcus aureus CECT 976 biofilms assessed as diameter of protease halo at 1/2XMTC measured after 72 hrs in presence of 1/8XMIC tobramycin (reference value: 12.5 to 13.3 mm); assay type: functional
Staphylococcus aureus [10] = experiment: Inhibition of virulence production in pre-established 24 hr-old Staphylococcus aureus CECT 976 biofilms assessed as diameter of gelatinases halo at 1XMTC measured after 48 hrs (reference value: 10 mm); assay type: functional
Staphylococcus aureus [11] = experiment: Inhibition of virulence production in pre-established 24 hr-old Staphylococcus aureus CECT 976 biofilms assessed as diameter of siderophores halo at 10XMTC measured after 48 hrs in presence of 1/2XMIC tobramycin (reference value: 11.8 +/-0.5 mm); assay type: functional
Staphylococcus aureus [12] = experiment: Antibiotic adjuvant activity against Staphylococcus aureus CECT 976 assessed as potentiation of tobramycin-induced antibacterial activity by measuring fractional inhibitory concentration index (MIC) at 62.5 ug/ml measured after 24 hrs by checkerboard assay; assay type: functional; conditions: dose 62.5 µg/ml
Pseudomonas aeruginosa [13] = experiment: Antibiofilm activity against preestablished 24 hr-old Pseudomonas aeruginosa ATCC 10145 assessed as reduction in metabolic activity of biofilm cells at 10XMTC by resazurin staining based fluorescence analysis; assay type: functional
Pseudomonas aeruginosa [14] = experiment: Antibiofilm activity against preestablished 24 hr-old Pseudomonas aeruginosa ATCC 10145 assessed as reduction in metabolic activity of biofilm cells at MTC by resazurin staining based fluorescence analysis; assay type: functional, organism-based
Staphylococcus aureus [15] = experiment: Inhibition of virulence production in pre-established 24 hr-old Staphylococcus aureus CECT 976 biofilms assessed as diameter of protease halo at 10XMTC measured after 72 hrs in presence of 1/2XMIC tobramycin (reference value: 11.8 to 12.3 mm); assay type: functional
Staphylococcus aureus [16] = experiment: Inhibition of virulence production in Staphylococcus aureus CECT 976 biofilms assessed as diameter of protease halo at 1/2XMTC measured after 72 hrs (reference value: 11.8 to 13.3 mm); assay type: functional
Pseudomonas aeruginosa [17] = experiment: Antibacterial activity against Pseudomonas aeruginosa ATCC 10145 assessed as inhibition of bacterial growth by measuring inhibition zone diameter at 100 ug/ml incubated for 24 hrs in presence of tobramycin by disc diffusion method (reference value: 13.25 +/-0.5 mm); assay type: functional; conditions: read-out: DIZ
Staphylococcus aureus [18] = experiment: Inhibition of virulence production in pre-established 24 hr-old Staphylococcus aureus CECT 976 biofilms assessed as diameter of lipases halo at 10XMTC measured after 48 hrs in presence of 1/4XMIC tobramycin (reference value: 11.5 +/-0.6 mm); assay type: functional
Staphylococcus aureus [19] = experiment: Antibiofilm activity against preestablished 24 hr-old Staphylococcus aureus CECT 976 assessed as reduction in metabolic activity of biofilm cells at 10XMTC by resazurin staining based fluorescence analysis; assay type: functional
Staphylococcus aureus [20] = experiment: Inhibition of virulence production in Staphylococcus aureus CECT 976 biofilms assessed as diameter of siderophores halo at 1/2XMTC measured after 48 hrs in presence of 1/2XMIC tobramycin (reference value: 10.5 +/-0.6 mm); assay type: functional
Staphylococcus aureus [21] = experiment: Inhibition of virulence production in pre-established 24 hr-old Staphylococcus aureus CECT 976 biofilms assessed as diameter of gelatinases halo at 10XMTC measured after 48 hrs in presence of 1/4XMIC tobramycin (reference value: 10 to 11.3 mm); assay type: functional
Staphylococcus aureus [22] = experiment: Inhibition of virulence production in Staphylococcus aureus CECT 976 biofilms assessed as diameter of gelatinases halo at 1XMTC measured after 48 hrs (reference value: 11.5 to 11.8 mm); assay type: functional
Staphylococcus aureus [23] = experiment: Antibiofilm activity against preestablished 24 hr-old Staphylococcus aureus CECT 976 assessed as biomass removal at 1000 to 10000 ug/ml measured after 24 hrs by crystal violet staining method; assay type: functional; conditions: dose 1000-10000 µg/ml, at 1000 to 10000 µg/mL
Staphylococcus aureus [24] = experiment: Inhibition of virulence production in Staphylococcus aureus CECT 976 biofilms assessed as diameter of protease halo at 1/2XMTC measured after 72 hrs in presence of 1/4XMIC tobramycin (reference value: 11.5 to 12.3 mm); assay type: functional
Staphylococcus aureus [25] = experiment: Inhibition of virulence production in pre-established 24 hr-old Staphylococcus aureus CECT 976 biofilms assessed as diameter of gelatinases halo at 10XMTC measured after 48 hrs (reference value: 10.8 to 11 mm); assay type: functional
Pseudomonas aeruginosa [26] = experiment: Antibiotic adjuvant activity against Pseudomonas aeruginosa ATCC 10145 assessed as potentiation of ciprofloxacin-induced antibacterial activity by measuring fractional inhibitory concentration index (MIC) at 15.6 ug/ml measured after 24 hrs by checkerboard assay; assay type: functional; conditions: dose 15.6 µg/ml
Staphylococcus aureus [27] = experiment: Antibiotic adjuvant activity against Staphylococcus aureus CECT 976 assessed as potentiation of tobramycin-induced antibacterial activity by measuring fractional inhibitory concentration index (MBC) at 62.5 ug/ml measured after 24 hrs by checkerboard assay; assay type: functional; conditions: dose 62.5 µg/ml

Row | SMILES | inhibition at 10000 µg/mL (Staphylococcus aureus [1]) [%] | zone of inhibition at 1000 µg/mL (Staphylococcus aureus [2]) [mm] | Activity (Staphylococcus aureus [3]) [mm] | Activity (Staphylococcus aureus [4]) [mm] | zone of inhibition at 1000 µg/mL (Staphylococcus aureus [5]) [mm] | Activity (Staphylococcus aureus [6]) [mm] | Activity (Pseudomonas aeruginosa [7]) | Activity [8] | Activity (Cell membrane) [%] | Activity (Staphylococcus aureus [9]) [mm] | Activity (Staphylococcus aureus [10]) [mm] | Activity (Staphylococcus aureus [11]) [mm] | fractional inhibitory concentration index (FICI) (Staphylococcus aureus [12]) | inhibition (INH) (Pseudomonas aeruginosa [13]) [%] | Activity (Pseudomonas aeruginosa [14]) | Activity (Staphylococcus aureus [15]) [mm] | Activity (Staphylococcus aureus [16]) [mm] | zone of inhibition at 100 µg/mL (Pseudomonas aeruginosa [17]) [mm] | Activity (Staphylococcus aureus [18]) [mm] | inhibition (INH) (Staphylococcus aureus [19]) [%] | also measured
1 | O=c1cc(CO)occ1O [KOJIC ACID] | 80 | 16 | 0 | 0 | 26.8 | 10 | inactive | Active | 50 | 0 | 0 | 10 | 0.3 | 70 | inactive | 0 | 0 | 17.2 | 2.5 | 80 | Activity (Staphylococcus aureus [20]): 9.75 mm; Activity (Staphylococcus aureus [21]): 0 mm; Activity (Staphylococcus aureus [22]): 0 mm; inhibition (INH) (Staphylococcus aureus [23]): 15%; Activity (Staphylococcus aureus [24]): 0 mm; Activity (Staphylococcus aureus [25]): 0 mm; fractional inhibitory concentration index (FICI) (Pseudomonas aeruginosa [26]): 0.5; fractional inhibitory concentration index (FICI) (Staphylococcus aureus [27]): 0.3
2 | Cc1occc(=O)c1O [MALTOL] | 80 | 15.5 | 0 | 0 | 28.2 | 10 | inactive | Active | 50 | 0 | 0 | 10 | 0.3 | 70 | inactive | 0 | 0 | 16.2 | 2.3 | 80 | Activity (Staphylococcus aureus [20]): 9.5 mm; Activity (Staphylococcus aureus [21]): 0 mm; Activity (Staphylococcus aureus [22]): 0 mm; inhibition (INH) (Staphylococcus aureus [23]): 15%; Activity (Staphylococcus aureus [24]): 0 mm; Activity (Staphylococcus aureus [25]): 0 mm; fractional inhibitory concentration index (FICI) (Pseudomonas aeruginosa [26]): 0.5; fractional inhibitory concentration index (FICI) (Staphylococcus aureus [27]): 0.3
